Experimental data: US8703431B2, “Polypeptides for the in vitro assessment of the sensitising potential of a test compound” (Immunosearch, priority 2009, dated 2014)

Key:
[1] = skin sensitisation, as stated in the description; cited from earlier work
[2] = target: T1, polypeptide SEQ ID NO: 8 in which X1, X2, X3 and X4 each represents a lysine (Mus musculus, UniProt O09114); assay: HPLC test of % fixing of test compound on polypeptide; assay type: binding; settings: 5 mM test compound; for fixing, SEQ ID NO: 8 (X1-X4 lysine), pH 8.3 / fixing, SEQ ID NO: 8 (X1-X4 lysine), pH 8.8 / fixing, SEQ ID NO: 8 (X1-X4 lysine), pH 9.2: Example 3; for fixing, SEQ ID NO: 8 (X1-X4 lysine), pH 8.3: twice 0.5 mM polypeptide (SEQ ID NO: 19 and 8), TRIS-HCl pH 8.3; for fixing, SEQ ID NO: 8 (X1-X4 lysine), pH 8.3 / fixing, SEQ ID NO: 8 (X1-X4 lysine), pH 9.2: 'Fixing' = fixing exists but not quantifiable; for fixing, SEQ ID NO: 8 (X1-X4 lysine), pH 8.8: TRIS-HCl pH 8.8; for fixing, SEQ ID NO: 8 (X1-X4 lysine), pH 9.2: TRIS-HCl pH 9.2; for % fixing (mean), SEQ ID NO: 8 (X1-X4 lysine): Example 4
T1 construct: made in house; host or cells: chemical peptide synthesis (Fmoc)
T1 sequence (O09114 148-173 limits assumed): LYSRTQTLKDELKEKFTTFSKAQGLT
Method: (§1) A test with 0.5 mM of polypeptide and 5 mM of test compound is carried out under the following conditions:
(§2) The reaction mixture containing 40 μl of peptide solution (1.25 mM stock solution in a 100 mM ammonium acetate buffer at pH 10.2 and the polypeptide of sequence SEQ ID NO: 18, SEQ ID NO: 7 in which X1, X2, X3 and X4 each represents a lysine, or SEQ ID NO: 8 in which X1, X2, X3 and X4 each represents a lysine), 35 μl of 100 mM ammonium acetate buffer solution, at pH 10.2, 20 μl of acetonitrile and 5 μl of solution to be tested (100 mM stock solution in acetonitrile or a 50% acetonitrile 50% DMSO mixture) was prepared and then stirred.
(§3) The reaction mixture was then put to incubate at 30° C. for 4 hours and in darkness.
(§4) HPLC analysis was then carried out at a gradient of 10% to 45% of buffer B (acetonitrile+0.08% of trifluoroacetic acid (TFA)) in 20 minutes (buffer A: water+0.1% of TFA), rate 1 ml/minute. Detection was carried out under UV at 230 nm.
(§5) The control without allergen consisted of 40 μl of buffer solution.
(§6) The buffer used was 100 Mm TRIS-HCl at pH 8.3, pH 9.2 and pH 8.8.
(§7) The buffer used was TRIS-HCl at 100 mM.
(§8) A test with twice 0.5 mM of polypeptides of sequences SEQ ID NO: 19 and SEQ ID NO: 1 wherein X1, X2, X3 and X4 each represent a lysine, and having an NH2 group at its C-Terminal end, and SEQ ID NO: 8 wherein X1, X2, X3 and X4 each represent a lysine, and 5 mM of test compound, was carried out in accordance with the same protocol as that described for example 1.

[3] = test system: polypeptide SEQ ID NO: 1 wherein X1, X2, X3 and X4 each represent a lysine, having an NH2 group at its C-Terminal end; assay: as above; assay type: binding; settings: for % fixing, SEQ ID NO: 1 (X1-X4 lysine, NH2 group at C-Terminal end): Example 5, 5 mM test compound, TRIS-HCl 100 mM, signal disturbed, preventing measurements greater than 82-83% fixing, these values represent a minimum; for precipitation of test compound during measurements with SEQ ID NO: 1: Example 5 conditions, explains the medium fixing results
Method: as §1, §2, §3, §4, §5, §8, §7
It should be noted, in the case of the tests of SEQ ID NO: 1, the signal was disturbed, preventing measurements greater than 82-83% fixing. These values consequently represent a minimum.
A coelution of the polypeptide with the allergens cinnamic aldehyde and 1,2-Benzisothiazolin-3-one was observed.

[4] = test system: polypeptide of sequence SEQ ID NO: 19 (Ac-RFAACAA-NH2); assay: HPLC test of % fixing of test compound on polypeptide (positive control peptide); assay type: binding; settings: 5 mM test compound; for fixing, SEQ ID NO: 19, pH 8.3 / fixing, SEQ ID NO: 19, pH 8.8 / fixing, SEQ ID NO: 19, pH 9.2: Example 3; for fixing, SEQ ID NO: 19, pH 8.3: twice 0.5 mM polypeptide (SEQ ID NO: 19 and 8), TRIS-HCl pH 8.3; for fixing, SEQ ID NO: 19, pH 8.3 / fixing, SEQ ID NO: 19, pH 8.8: 'Fixing' = fixing exists but not quantifiable; for % fixing (mean), SEQ ID NO: 19: Example 4; for fixing, SEQ ID NO: 19, pH 8.8: TRIS-HCl pH 8.8; for fixing, SEQ ID NO: 19, pH 9.2: TRIS-HCl pH 9.2
Method: as §1, §2, §3, §4, §5
A test with 0.5 mM of polypeptide of sequence […] and 5 mM of test compound was carried in accordance with the same protocol as that described for example 1.
The sequence SEQ ID NO: 19, which is not a lipocalin derivative, was used as a positive control. This sequence corresponds to the following sequence:
The buffer used was 100 mM TRIS-HCl at pH 8.3.
as §6, §7, §8

[5] = test system: polypeptide of sequence SEQ ID NO: 18 (Ac-RFAAKAA-NH2); assay: as above; assay type: binding; settings: 0.5 mM polypeptide, 5 mM test compound, 100 mM ammonium acetate buffer pH 10.2, 30° C., 4 hours, darkness
Method: as §1, §2
The sequence SEQ ID NO: 18, which is not a lipocalin derivative, was used as a positive control. This sequence corresponds to the following sequence:
as §3, §4, §5

[6] = target: T2, polypeptide SEQ ID NO: 7 in which X1, X2, X3 and X4 each represents a lysine (Mus musculus, UniProt P11672, DEL176-176); assay: HPLC test of % fixing of test compound on polypeptide; assay type: binding; settings: 0.5 mM polypeptide, 5 mM test compound, 100 mM ammonium acetate buffer pH 10.2, 30° C., 4 hours, darkness
T2 construct: made in house; host or cells: chemical peptide synthesis (Fmoc)
T2 sequence (P11672 with tags, fused parts or gaps DEL176-176 limits assumed): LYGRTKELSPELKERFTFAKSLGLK
Method: as §1, §2, §3, §4, §5

[7] = twice 0.5 mM polypeptide, TRIS-HCl 100 mM, 'Fixing' = not quantifiable
[8] = Example 5, twice 0.5 mM polypeptide, TRIS-HCl 100 mM, 'Fixing' = not quantifiable
[9] = twice 0.5 mM polypeptide, TRIS-HCl 100 mM
[10] = Example 5, twice 0.5 mM polypeptide, TRIS-HCl 100 mM
[11] = 0.5 mM polypeptide, 100 mM ammonium acetate buffer pH 10.2, 30° C., 4 hours, darkness
[12] = Example 2, 0.5 mM polypeptide, 100 mM TRIS-HCl pH 8.3

| SMILES | sensitising capacity (sensitiser class) [1] | fixing, SEQ ID NO: 8 (X1-X4 lysine), pH 8.3 [2] | fixing, SEQ ID NO: 8 (X1-X4 lysine), pH 8.8 ([2]; twice 0.5 mM polypeptide) [%] | fixing, SEQ ID NO: 8 (X1-X4 lysine), pH 9.2 ([2]; twice 0.5 mM polypeptide) | % fixing (mean), SEQ ID NO: 8 (X1-X4 lysine) [2, 7] | % fixing, SEQ ID NO: 8 (X1-X4 lysine) [2, 8] | % fixing, SEQ ID NO: 1 (X1-X4 lysine, NH2 group at C-Terminal end) [3] [%] | fixing, SEQ ID NO: 19, pH 8.3 [4] | % fixing (mean), SEQ ID NO: 19 [4, 9] [%] | % fixing, SEQ ID NO: 19 [4, 10] [%] | % fixing, SEQ ID NO: 18 [5] [%] | % fixing, SEQ ID NO: 8 (X1-X4 lysine) [2, 11] [%] | precipitation of test compound during measurements with SEQ ID NO: 1 [3] | % fixing, SEQ ID NO: 7 (X1-X4 lysine) [6] [%] | % fixing, SEQ ID NO: 19 [4, 12] [%] | fixing, SEQ ID NO: 19, pH 8.8 ([4]; twice 0.5 mM polypeptide) | fixing, SEQ ID NO: 19, pH 9.2 ([4]; twice 0.5 mM polypeptide) [%] |
| --- | --- | --- | --- | --- | --- | --- | --- | --- | --- | --- | --- | --- | --- | --- | --- | --- | --- |
| Oc1ccc(O)cc1 [HQ, 1,4-hydroquinone] | strong sensitisers | 100% | 100 | Fixing | 100% | 100% | 82.5 | 100% | 90 | 90 |  |  |  |  |  |  |  |
| CCCCCCCCCCCCOC(=O)c1cc(O)c(O)c(O)c1 [LG, lauryl gallate] | strong sensitisers |  |  |  | 62% | 62% | 41.5 |  | 100 | 100 | 62 | 63 | very greatly precipitated | 100 | 100 |  |  |
| CN(C)CCCN [3-DMAPA, 3-3-dimethylaminopropylamine] | moderate sensitisers |  |  |  | 6% | 6% | 3 |  | 15 | 15 |  |  |  |  | 25 |  |  |
| Clc1ccccc1 [Cbz, chlorobenzene] | non-sensitising |  |  |  | 0% | 0% | 7.5 |  | 0 | 0 | 0 | 0 |  | 0 | 0 |  |  |
| CC(O)C(=O)O (stereo not shown) [LA, lactic acid] | non-sensitising | 0% | 0 | 0% | 0% | 0% | 1 | 0% | 0 | 0 |  |  |  |  |  | 0% | 0 |
| CC(C=O)Cc1ccc(C(C)(C)C)cc1 (stereo not shown) [Li, lilial] | weak sensitiser | 0% |  |  | 0% | 0% | 12 | 36% | 18 | 18 |  |  |  |  |  |  | 0 |
| O=CCc1ccccc1 [PA, phenylacetaldehyde] | moderate sensitisers | Fixing | 0 | 21% | Fixing | Fixing | 54 | 100% | 81 | 81 |  |  | very greatly precipitated |  |  |  | 86 |
| O=c1[nH]sc2ccccc12 [Ben, 1,2-benzisothiazolin-3-one] | moderate sensitisers | 100% | 100 | 0% |  |  |  | Fixing | 90 | 90 |  |  |  |  |  | Fixing |  |
| O=C/C=C/c1ccccc1 [CA, cinnamic aldehyde] | moderate sensitisers |  |  |  | 30% | 30% |  |  |  |  | 17 | 30 |  | 100 |  |  |  |
| O=CCCCC=O [GA, glutaraldehyde] | strong sensitisers | 50% | 100 | 50% | 50% | 50% | 83 | 22% | 33 | 33 |  |  |  |  |  | Fixing | 33 |
| O=c1c(-c2ccccc2)c1-c1ccccc1 [DPCP, diphenylcyclopropenone] | extremely strong sensitiser |  |  |  |  |  | 83.5 |  | 100 | 100 |  |  |  |  | 96 |  |  |
| CC(C)=CCCC(C)=CC=O [Cal, citral] | moderate sensitisers |  |  |  | 70% | 70% | 64 |  | 46 | 46 |  |  |  |  | 70 |  |  |
